Laboratory results from patent US11076594B2, “Pyrazolone compound or salt thereof, preparation method therefor, herbicide composition and use thereof” (QINGDAO KINGAGROOT CHEMICAL COMPOUNDS CO., LTD., priority 2015, dated 2021).

Experiments:
Assay type in all cases: in vivo
[1] = tested on: wheat; assay: post-emergence stage experiment, crop (Table 1); details: post-emergence spray at 4-5 leaf stage, 250 g/ha active ingredient with 450 kg/ha water, rated after 3 weeks in greenhouse
How it was run: (§1)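 Seeds were sown in pots, covered with 0.5-2 cm soil and grown in a greenhouse. At the 4-5 leaf stage, plants were sprayed with the test compound formulated in acetone, Tween 80 and water. Fresh weight control was rated after 3 weeks.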

[2] = tested on: corn; assay: post-emergence stage experiment, crop (Table 1); details: post-emergence spray at 4-5 leaf stage, 250 g/ha active ingredient with 450 kg/ha water, rated after 3 weeks in greenhouse
How it was run: as §1

[3] = tested on: Indian mallow; assay: weed control effect in post-emergence stage (Table 1); parameters: key: Level 10: completely dead; Level 9: above 95% growth control rate; Level 8: above 90% growth control rate; Level 7: above 80% growth control rate; Level 6: above 70% growth control rate; Level 5: above 60% growth control rate; Level 4: above 50% growth control rate; Level 3: above 20% growth control rate; Level 2: 5%-20% growth control rate; Level 1: below 5% growth control rate; details: post-emergence spray at 4-5 leaf stage, 250 g/ha active ingredient with 450 kg/ha water, rated after 3 weeks in greenhouse
How it was run: as §1

[4] = tested on: echinochloa; assay: as above; parameters: key: Level 10: completely dead; Level 9: above 95% growth control rate; Level 8: above 90% growth control rate; Level 7: above 80% growth control rate; Level 6: above 70% growth control rate; Level 5: above 60% growth control rate; Level 4: above 50% growth control rate; Level 3: above 20% growth control rate; Level 2: 5%-20% growth control rate; Level 1: below 5% growth control rate; details: post-emergence spray at 4-5 leaf stage, 250 g/ha active ingredient with 450 kg/ha water, rated after 3 weeks in greenhouse
How it was run: as §1

[5] = tested on: crab grass; assay: as above; parameters: key: Level 10: completely dead; Level 9: above 95% growth control rate; Level 8: above 90% growth control rate; Level 7: above 80% growth control rate; Level 6: above 70% growth control rate; Level 5: above 60% growth control rate; Level 4: above 50% growth control rate; Level 3: above 20% growth control rate; Level 2: 5%-20% growth control rate; Level 1: below 5% growth control rate; details: post-emergence spray at 4-5 leaf stage, 250 g/ha active ingredient with 450 kg/ha water, rated after 3 weeks in greenhouse
How it was run: as §1

[6] = tested on: bidens bipinnata; assay: as above; parameters: key: Level 10: completely dead; Level 9: above 95% growth control rate; Level 8: above 90% growth control rate; Level 7: above 80% growth control rate; Level 6: above 70% growth control rate; Level 5: above 60% growth control rate; Level 4: above 50% growth control rate; Level 3: above 20% growth control rate; Level 2: 5%-20% growth control rate; Level 1: below 5% growth control rate; details: post-emergence spray at 4-5 leaf stage, 250 g/ha active ingredient with 450 kg/ha water, rated after 3 weeks in greenhouse
How it was run: as §1

[7] = tested on: rorippa indica; assay: as above; parameters: key: Level 10: completely dead; Level 9: above 95% growth control rate; Level 8: above 90% growth control rate; Level 7: above 80% growth control rate; Level 6: above 70% growth control rate; Level 5: above 60% growth control rate; Level 4: above 50% growth control rate; Level 3: above 20% growth control rate; Level 2: 5%-20% growth control rate; Level 1: below 5% growth control rate; details: post-emergence spray at 4-5 leaf stage, 250 g/ha active ingredient with 450 kg/ha water, rated after 3 weeks in greenhouse
How it was run: as §1

[8] = tested on: foxtail; assay: as above; parameters: key: Level 10: completely dead; Level 9: above 95% growth control rate; Level 8: above 90% growth control rate; Level 7: above 80% growth control rate; Level 6: above 70% growth control rate; Level 5: above 60% growth control rate; Level 4: above 50% growth control rate; Level 3: above 20% growth control rate; Level 2: 5%-20% growth control rate; Level 1: below 5% growth control rate; details: post-emergence spray at 4-5 leaf stage, 250 g/ha active ingredient with 450 kg/ha water, rated after 3 weeks in greenhouse
How it was run: as §1

[9] = tested on: alopecurus japonicas; assay: wheat field resistant weed control, greenhouse spray at 4 leaf stage; parameters: key: Level 10: completely dead; Level 9: above 95% growth control rate; Level 8: above 90% growth control rate; Level 7: above 80% growth control rate; Level 6: above 70% growth control rate; Level 5: above 60% growth control rate; Level 4: above 50% growth control rate; Level 3: above 20% growth control rate; Level 2: 5%-20% growth control rate; Level 1: below 5% growth control rate; details: sprayed at 4 leaf stage, 4 weeks after treatment, resistant to ALS and ACCase inhibitor herbicides
Experimental: The activity level standard of harmful plant destruction (i.e. growth control rate) is as follows:
The above described growth control rate is fresh weight control rate.
The seeds of alopecurus japonicas, flixweed, shepherd's purse, corn gromwell, chickweed, beckmannia syzigachne, and annual ryegrass and wheat seeds were put into a plastic pot loaded with soil, and then covered with 0.5-2 cm soil, the seeds were allowed to grow in good greenhouse environment. The test plants were treated at 4 leaf stage 2-3 weeks after sowing. The test compounds of the present invention were dissolved in acetone respectively, then added with methyl oleate emulsion and diluted by certain amount of water to certain concentration. The solution was sprayed to the plant with a sprayer. Then the plants were cultured for 4 weeks in greenhouse.

[10] = tested on: rice; assay: post-emergence stage experiment, crop (Table 1); parameters: key: Level 10: completely dead; Level 9: above 95% growth control rate; Level 8: above 90% growth control rate; Level 7: above 80% growth control rate; Level 6: above 70% growth control rate; Level 5: above 60% growth control rate; Level 4: above 50% growth control rate; Level 3: above 20% growth control rate; Level 2: 5%-20% growth control rate; Level 1: below 5% growth control rate; details: post-emergence spray at 4-5 leaf stage, 250 g/ha active ingredient with 450 kg/ha water, rated after 3 weeks in greenhouse
How it was run: as §1

[11] = tested on: chickweed; assay: wheat field resistant broadleaf weed control, greenhouse spray at 4 leaf stage; parameters: key: Level 10: completely dead; Level 9: above 95% growth control rate; Level 8: above 90% growth control rate; Level 7: above 80% growth control rate; Level 6: above 70% growth control rate; Level 5: above 60% growth control rate; Level 4: above 50% growth control rate; Level 3: above 20% growth control rate; Level 2: 5%-20% growth control rate; Level 1: below 5% growth control rate; details: 250 g/ha of the active substance; 4 weeks after treatment; ALS inhibitor resistant
How it was run: (§2)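 Compounds in acetone were mixed with methyl oleate emulsion, diluted with water and applied with a sprayer to greenhouse plants at the 4 leaf stage. Growth control, expressed as fresh weight control rate, was assessed after 4 weeks of further culture.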

[12] = tested on: corn gromwell; assay: as above; parameters: key: Level 10: completely dead; Level 9: above 95% growth control rate; Level 8: above 90% growth control rate; Level 7: above 80% growth control rate; Level 6: above 70% growth control rate; Level 5: above 60% growth control rate; Level 4: above 50% growth control rate; Level 3: above 20% growth control rate; Level 2: 5%-20% growth control rate; Level 1: below 5% growth control rate; details: 250 g/ha of the active substance; 4 weeks after treatment; ALS inhibitor resistant
How it was run: as §2

[13] = tested on: flixweed; assay: as above; parameters: key: Level 10: completely dead; Level 9: above 95% growth control rate; Level 8: above 90% growth control rate; Level 7: above 80% growth control rate; Level 6: above 70% growth control rate; Level 5: above 60% growth control rate; Level 4: above 50% growth control rate; Level 3: above 20% growth control rate; Level 2: 5%-20% growth control rate; Level 1: below 5% growth control rate; details: 250 g/ha of the active substance; 4 weeks after treatment; ALS inhibitor resistant
How it was run: as §2

[14] = tested on: shepherd's purse; assay: as above; parameters: key: Level 10: completely dead; Level 9: above 95% growth control rate; Level 8: above 90% growth control rate; Level 7: above 80% growth control rate; Level 6: above 70% growth control rate; Level 5: above 60% growth control rate; Level 4: above 50% growth control rate; Level 3: above 20% growth control rate; Level 2: 5%-20% growth control rate; Level 1: below 5% growth control rate; details: 250 g/ha of the active substance; 4 weeks after treatment; ALS inhibitor resistant
How it was run: as §2

[15] = tested on: wheat; assay: wheat field test, crop selectivity, greenhouse spray at 4 leaf stage; details: 4 weeks after treatment
How it was run: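 Potted plants grown in greenhouse were sprayed at the 4 leaf stage, 2–3 weeks post-sowing, with compound in acetone plus methyl oleate emulsion diluted in water. After 4 weeks of further greenhouse culture, growth control was scored as fresh weight control rate.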

[16] = 250 g/ha of the active substance

Row | Structure (SMILES) | effect on crop, Wheat (level) [1] | effect on crop, Corn (level) [2] | weed control effect, Indian mallow (level) [3] | weed control effect, Echinochloa (level) [4] | weed control effect, Crab grass (level) [5] | weed control effect, Bidens bipinnata (level) [6] | weed control effect, Rorippa indica (level) [7] | weed control effect, Green foxtail (level) [8] | effect on crop, Rice (level) [10] | chickweed weed controlling effect (activity level) [11] | corn gromwell weed controlling effect (activity level) [12] | flixweed weed controlling effect (activity level) [13] | shepherd's purse weed controlling effect (activity level) [14] | Wheat (activity level, crop damage) [15, 16] | further results
1 | Cn1nc(C2CC2)c(C(=O)c2ccc(C(F)(F)F)c(N3CCCCC3=O)c2Cl)c1O [Compound 046] | 0 | 4 (Level 4: above 50% growth control rate) | 10 | 6 (Level 6: above 70% growth control rate) | 6 (Level 6: above 70% growth control rate) | 2 (Level 2: 5%-20% growth control rate) | 10 | 10 | 5 (Level 5: above 60% growth control rate) | 10 | 10 | 10 | 10 | 0 | Alopecurus japonicas weed controlling effect (activity level) ([9]; 1 g/mu): 6 (Level 6: above 70% growth control rate); Alopecurus japonicas weed controlling effect (activity level) ([9]; 2 g/mu): 9 (Level 9: above 95% growth control rate); Alopecurus japonicas weed controlling effect (activity level) ([9]; 4 g/mu): 10; Alopecurus japonicas weed controlling effect (activity level) ([9]; 8 g/mu): 10; Wheat (activity level, crop damage) ([15]; 2 g/mu, sprayed at 4 leaf stage): 0; Wheat (activity level, crop damage) ([15]; 4 g/mu, sprayed at 4 leaf stage): 0; Wheat (activity level, crop damage) ([15]; 8 g/mu, sprayed at 4 leaf stage): 0; Wheat (activity level, crop damage) ([15]; 16 g/mu, sprayed at 4 leaf stage): 0; Wheat (activity level, crop damage) ([15]; 32 g/mu, sprayed at 4 leaf stage): 1 (Level 1: below 5% growth control rate)
2 | CCn1nc(C2CC2)c(C(=O)c2ccc(C(F)(F)F)c(-n3cccn3)c2Cl)c1O [Compound 134] | 1 (Level 1: below 5% growth control rate) | 3 (Level 3: above 20% growth control rate) | 10 | 6 (Level 6: above 70% growth control rate) | 2 (Level 2: 5%-20% growth control rate) | 9 (Level 9: above 95% growth control rate) | 10 | 10 | 10 | 10 | 10 | 10 | 10 | 1 (Level 1: below 5% growth control rate) | –
3 | CCn1nc(C)c(C(=O)c2ccc(C(F)(F)F)c(-n3cc(C)cn3)c2Cl)c1O [Compound 138] | 1 (Level 1: below 5% growth control rate) | 2 (Level 2: 5%-20% growth control rate) | 0 | 10 | 5 (Level 5: above 60% growth control rate) | 5 (Level 5: above 60% growth control rate) | 10 | 10 | 7 (Level 7: above 80% growth control rate) | 10 | 10 | 10 | 10 | 1 (Level 1: below 5% growth control rate) | –
4 | CCc1nn(C)c(O)c1C(=O)c1ccc(C(F)(F)F)c(-n2cc(C)cn2)c1Cl [Compound 140] | 0 | 0 | 10 | 8 (Level 8: above 90% growth control rate) | 1 (Level 1: below 5% growth control rate) | 8 (Level 8: above 90% growth control rate) | 10 | 7 (Level 7: above 80% growth control rate) | 10 | 10 | 10 | 10 | 10 | 0 | –
5 | CCc1nn(C)c(OC(=O)c2cn(C)nc2C)c1C(=O)c1ccc(C(F)(F)F)c(-n2cc(C)cn2)c1Cl [Compound 141] | 1 (Level 1: below 5% growth control rate) | 0 | 9 (Level 9: above 95% growth control rate) | 9 (Level 9: above 95% growth control rate) | 3 (Level 3: above 20% growth control rate) | 7 (Level 7: above 80% growth control rate) | 10 | 7 (Level 7: above 80% growth control rate) | 10 | 10 | 10 | 10 | 10 | 1 (Level 1: below 5% growth control rate) | –
